Data reported in patent US20100216767A1, “QUINAZOLINES FOR PDK1 INHIBITION” (priority 2006, published 2010).

Molecular target: T1, PDK1 kinase (Homo sapiens, UniProt O15530)
T1 sequence (O15530 1-556): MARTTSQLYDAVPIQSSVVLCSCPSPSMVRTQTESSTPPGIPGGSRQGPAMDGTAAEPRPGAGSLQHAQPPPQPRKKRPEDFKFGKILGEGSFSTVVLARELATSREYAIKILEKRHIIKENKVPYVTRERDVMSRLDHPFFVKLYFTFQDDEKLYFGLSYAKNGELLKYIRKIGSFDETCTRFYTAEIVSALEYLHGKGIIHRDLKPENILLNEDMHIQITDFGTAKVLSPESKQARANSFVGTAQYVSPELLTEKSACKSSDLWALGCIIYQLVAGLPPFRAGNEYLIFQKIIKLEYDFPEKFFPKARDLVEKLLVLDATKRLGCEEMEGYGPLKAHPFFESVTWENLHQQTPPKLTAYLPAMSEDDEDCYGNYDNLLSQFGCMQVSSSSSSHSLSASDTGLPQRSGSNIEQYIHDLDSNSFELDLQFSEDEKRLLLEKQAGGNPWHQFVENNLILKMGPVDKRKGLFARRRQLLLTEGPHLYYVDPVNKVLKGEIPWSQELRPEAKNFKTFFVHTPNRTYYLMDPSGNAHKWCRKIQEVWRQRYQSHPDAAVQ
Experiment: PDK1 Kinase Alpha Screen Assay
Type: biochemical
Settings: Table 1; 10 μM ATP, 50 nM PDK1-4 peptide
Experimental: Reagents/Concentrations: The PDK1-4 peptide substrate, biotin-[…]-NH2, (SEQ ID NO: 1), was purchased from the Tufts University Core Facility. The final concentration of PDK1-4 peptide substrate was 50 nM. The ATP substrate (adenosine-[…] triphosphate) was purchased from Roche Diagnostics. The final concentration of ATP substrate was 10 μM. Phospho-(Ser/Thr) PKA substrate antibody was purchased from Cell Signaling Technology. The final concentration of antibody was 0.3 mg/mL. The Alpha Screen Protein A detection kit containing donor and acceptor beads was purchased from PerkinElmer Life Sciences. The final concentration of both donor and acceptor beads was 25 μg/mL. Alpha Screen was used for detection. The biotinylated-PDK1-4 peptide was phosphorylated by PDK1 kinase using the ATP substrate. The biotinylated-PDK1-4 peptide substrate was bound to the streptavidin coated donor bead. The antibody was bound to the protein A coated acceptor bead. The antibody bound to the phosphorylated form of the biotinylated PDK-1 peptide substrate, bringing the donor and acceptor beads into close proximity. Laser irradiation of the donor bead at 680 nm generated a flow of short-lived singlet oxygen molecules. When the donor and acceptor beads were in close proximity, the reactive oxygen generated by the irradiation of the donor beads initiated a luminescence/fluorescence cascade in the acceptor beads. This process led to a highly amplified signal with output in the 530-620 nm range. Assays were carried out in 50 mM Tris, pH=7.5, 10 mM MgCl2, 0.1% BSA, 0.01% Tween-20, 2 mM dithiolthreitol, 2.5% dimethyl sulfoxide. Reactions were stopped by adding 50 mM Tris, pH=7.5, 90 mM EDTA, 0.1% BSA, 0.01% Tween-20.
Procedure: To 10 μl, of PDK1-4 peptide, […] of test compound in dimethyl sulfoxide was added. PDK1 kinase and ATP were mixed, and 10 μL of the PDK1 kinase/ATP mix was added to start the reaction. The reaction was allowed to proceed for 3-18 hours. The reactions were then stopped by adding 10 μL of the EDTA-containing stop buffer. Beads were mixed with antibody, and 25 μL of the bead/antibody mix was then added to the stopped reactions. Plates were incubated at room temperature overnight to allow for detection development before being read. The assay was run in a 384-well format plate.

SMILES | IC50 [µM]
CC(=O)Nc1cc(CN2CCOCC2)cc(Nc2ncc3cc(-c4cn[nH]c4)ccc3n2)c1 [Example 30, N-(3-(6-(1H-Pyrazol-4-yl)quinazolin-2-ylamino)-5-(morpholinomethyl)phenyl)acetamide] | < 5
CC(=O)Nc1cc(I)cc(Nc2ncc3cc(Br)ccc3n2)c1 [Example 31, N-(3-(6-Bromoquinazolin-2-ylamino)-5-iodophenyl)acetamide] | < 5
CC(=O)Nc1cc(Nc2ncc3cc(Br)ccc3n2)cc(-c2cccnc2)c1 [Example 32, N-(3-(6-Bromoquinazolin-2-ylamino)-5-(pyridine-3-yl)phenyl)acetamide] | < 5
C#Cc1ccc2nc(Nc3cc(NC(C)=O)cc(-c4cccnc4)c3)ncc2c1 [Example 34, N-(3-(6-Ethynylyquinazolin-2-ylamino)-5-(pyridine-3-yl)phenyl)acetamide] | < 5
COc1cc2cnc(Nc3ccc(S(N)(=O)=O)cc3)nc2cc1OC [Example 35, 4-(6,7-Dimethoxyquinazolin-2-ylamino)benzenesulfonamide] | < 5
COc1ccc2nc(Nc3ccc(C(N)=O)cc3)ncc2c1 [Example 36, 4-(6-methoxyquinazolin-2-ylamino)benzamide] | < 5
CNC(=O)c1ccc2nc(Nc3ccc(S(N)(=O)=O)cc3)ncc2c1 [Example 37, N-methyl-2-(4-sulfamoyl-phenylamino)quinazoline-6-carboxamide] | 5 to 10
NC(=O)c1ccc2nc(Nc3ccc(S(N)(=O)=O)cc3)ncc2c1 [Example 42, 2-(4-sulfamoylphenyl-amino)quinazoline-6-carboxamide] | < 5
NS(=O)(=O)c1ccc(Nc2ncc3cc(C(=O)NC4CC4)ccc3n2)cc1 [Example 43, N-cyclopropyl-2-(4-sulfamoylphenylamino)-quinazoline-6-carboxamide] | < 5
NS(=O)(=O)c1ccc(Nc2ncc3cc(-c4cccnc4F)ccc3n2)cc1 [Example 44, 4-(6-(2-fluoropyridin-3-yl)quinazolin-2-ylamino)-benzenesulfonamide] | < 5
CN1CCN(c2cc(-c3ccc4nc(Nc5ccc(S(N)(=O)=O)cc5)ncc4c3)ccn2)CC1 [Example 45, 4-(6-(2-(4-methyl-piperazin-1-yl)pyridin-4-yl)quinazolin-2-ylamino)-benzenesulfonamide] | < 5
COc1cc2nc(Nc3ccc(S(N)(=O)=O)cc3)ncc2cc1Br [Example 47, 4-(6-Bromo-7-methoxyquinazolin-2-ylamino)benzenesulfonamide] | < 5
COc1cc2nc(Nc3ccc(S(=O)(=O)N4CCOCC4)cc3)ncc2cc1Br [Example 48, 6-bromo-7-methoxy-N-(4-(morpholinosulfonyl)phenyl)-quinazolin-2-amine] | < 5
C#Cc1cc2cnc(Nc3ccc(S(N)(=O)=O)cc3)nc2cc1OC [Example 49, 4-(6-ethynyl-7-methoxy-quinazolin-2-ylamino)-benzenesulfonamide] | < 5
C#Cc1cc2cnc(Nc3ccc(S(=O)(=O)N4CCOCC4)cc3)nc2cc1OC [Example 50, 6-ethynyl-7-methoxy-N-(4-(morpholinosulfonyl)-phenyl)-quinazolin-2-amine] | < 5
C#Cc1ccc2nc(Nc3cccc(N4CCOCC4)c3)ncc2c1 [Example 51, 6-ethynyl-N-(3-morpholinophenyl)-quinazolin-2-amine] | < 5
COc1cc(C#Cc2cccnc2)cc2cnc(Nc3ccc(S(N)(=O)=O)cc3)nc12 [Example 53, 4-(8-methoxy-6-(pyridin-3-ylethynyl)quinazolin-2-ylamino)benzene-sulfonamide] | 10 to 25
Cc1ccc2nc(Nc3ccc(S(N)(=O)=O)cc3)ncc2c1 [Example 54, 4-(6-methylquinazolin-2-ylamino)benzene-sulfonamide] | < 5
Cn1cc(-c2ccc3nc(Nc4ccc(S(N)(=O)=O)cc4)ncc3c2)cn1 [Example 56, 4-(6-(1-methyl-1H-pyrazol-4-yl)quinazolin-2-ylamino)benzene-sulfonamide] | < 5
C#Cc1ccc2nc(Nc3ccc(N4CCOCC4)cc3)ncc2c1 [Example 57, 6-ethynyl-N-(4-morpholinophenyl)-quinazolin-2-amine] | < 5
C#Cc1ccc2nc(Nc3ccc(C(N)=O)cc3)ncc2c1 [Example 58, 4-(6-ethynylquinazolin-2-ylamino)benzamide] | < 5
C#Cc1ccc2nc(Nc3cccc(C(N)=O)c3)ncc2c1 [Example 59, 3-(6-ethynylquinazolin-2-ylamino)benzamide] | < 5

Now from value to molecule:

IC50 [µM] | SMILES
< 5 | COc1cc(Br)cc2cnc(Nc3ccc(S(N)(=O)=O)cc3)nc12 [Example 1, 4-(6-Bromo-8-methoxyquinazolin-2-ylamino)benzenesulfonamide]
< 5 | C#Cc1cc(OC)c2nc(Nc3ccc(S(N)(=O)=O)cc3)ncc2c1 [Example 2, 4-(6-Ethynyl-8-methoxyquinazolin-2-ylamino)benzenesulfonamide]
< 5 | CCc1cc(OC)c2nc(Nc3ccc(S(N)(=O)=O)cc3)ncc2c1 [Example 3, 4-(6-Ethyl-8-methoxyquinazolin-2-ylamino)benzenesulfonamide]
< 5 | COc1cc(C#N)cc2cnc(Nc3ccc(S(N)(=O)=O)cc3)nc12 [Example 4, 4-(6-cyano-8-methoxyquinazolin-2-ylamino)benzene-sulfonamide]
< 5 | COc1cc(C)cc2cnc(Nc3ccc(S(N)(=O)=O)cc3)nc12 [Example 5, 4-(8-Methoxy-6-methylquinazolin-2-ylamino)benzenesulfonamide]
< 5 | CC(=O)Nc1cc(CN(C)C)cc(Nc2ncc3cc(Br)cc(Cl)c3n2)c1 [Example 6, N-(3-(6-Bromo-8-chloroquinazolin-2-ylamino)-5-((dimethylamino)-methyl)phenyl)acetamide]
< 5 | C#Cc1cc(Cl)c2nc(Nc3cc(CN(C)C)cc(NC(C)=O)c3)ncc2c1 [Example 7, N-(3-(8-Chloro-6-ethynylquinazolin-2-ylamino)-5((dimethylamino)methyl)-phenyl)acetamide]
< 5 | C#Cc1ccc2nc(Nc3ccc(S(N)(=O)=O)cc3)ncc2c1 [Example 10, 4(6-Ethynylquinazolin-2-ylamino)benzenesulfonamide]
< 5 | CC(C)NC(=O)c1ccc(Nc2ncc3cc(-c4nccs4)ccc3n2)cc1 [Example 12, N-Isopropyl-4-(6-(thiazol-2-yl)quinazolin-2-ylamino)benzamide]
< 5 | CC(C)NC(=O)c1ccc(Nc2ncc3cc(C#N)ccc3n2)cc1 [Example 13, 4-(6-Cyanoquinazolin-2-ylamino)-N-Isopropylbenzamide]
< 5 | COc1cc(Br)c(Cl)c2cnc(Nc3cc(CN(C)C)cc(NC(C)=O)c3)nc12 [Example 14, N-(3-(6-Bromo-5-chloro-8-methoxyquinazolin-2-ylamino)-5-((dimethylamino)methyl)phenyl)acetamide]
< 5 | NS(=O)(=O)c1ccc(Nc2ncc3cc(C(=O)O)ccc3n2)cc1 [Example 19, Methyl 2-(4-sulfamoylphenylamimo)quinazolin-6-carboxylic acid]
< 5 | C#Cc1ccc2nc(Nc3ccc(C(=O)N4CCOCC4)cc3)ncc2c1Cl [Example 22, (4-(5-Chloro-6-ethynylquinazolin-2-ylamino)phenyl)(morpholino) methanone]
< 5 | Fc1c(Br)ccc2nc(Nc3ccc(N4CCOCC4)cc3)ncc12 [Example 23, 6-Bromo-5-fluoro-N-(4-morpholinophenyl)quinazolin-2-amine]
< 5 | C#Cc1ccc2nc(Nc3ccc(N4CCOCC4)cc3)ncc2c1F [Example 24, 6-Ethynyl-5-fluoro-N-(4-morpholinophenyl)quinazolin-2-amine]
< 5 | NS(=O)(=O)c1ccc(Nc2ncc3cc(-c4nccs4)ccc3n2)cc1 [Example 27, 4-(6-(Thiazol-2-yl)quinazolin-2-ylamino)benzenesulfonamide]
